Series [1] can be described thus: stability under normal storage conditions and normal formulation manipulations. It counts as physicochemical.
Series [2] is described as follows: hygroscopicity under normal handling and storage conditions. It counts as physicochemical.

Structures are written as SMILES.

`CO[C@H]1/C=C/O[C@@]2(C)Oc3c(C)c(O)c4c(O)c(c(/C=N/N5CCN(C6CCCC6)CC5)c(O)c4c3C2=O)NC(=O)/C(C)=C\C=C\[C@H](C)[C@H](O)[C@@H](C)[C@@H](O)[C@@H](C)[C@H](OC(C)=O)[C@@H]1C` [crystalline form of rifapentine, Rifapentine]: in series [1], the stability result is given as “stable”. The hygroscopicity result in series [2] (normal handling and storage conditions) is “non-hydroscopic”; in series [2] (normal storage conditions and normal formulation manipulations) it was “non-hygroscopic”.

For the origin of these results see US20240199642A1, “METHOD FOR OBTAINING RIFAPENTINE WITH A NEW CRYSTALLINE FORM” (INTERQUIM S.A. DE C.V., priority 2021, published 2024).
